Columns and labels:
B cells = assay: B-lymphocyte adhesion and transmigration, MesenFlow assay; assay type: cell-based; settings: 30 μM
Method: Flow assays were conducted as described in a previous study (Bradfield, P. F., et al., JAM-C regulates unidirectional monocyte transendothelial migration in inflammation. Blood, 2007. 110(7): p. 2545-55). HUVECs were cultured at 1×10^5 cells/slide on Ibidi 6-chamber slides (80606; Ibidi) before treatment with TNFα (500 U/mL) for 6-10 hours. An individual chamber outlet was then attached to a calibrated pump (74 900; Cole Partner, Vernon Hills, IL) and flow was generated by perfusing wash buffer (M199 with 0.15% BSA) or a monocyte suspension (2.5×10^6 cells/mL) over the HUVEC monolayer. The flow rate was representative of shear rates in small venules (0.05 Pa). Observations made using phase-contrast microscopy (Model: Axiovert 100; Objective: 20×/0.3 NA air; Carl Zeiss) were recorded using a high-resolution camera (D70; Nikon, Zurich, Switzerland). Individual images were recorded every 30 seconds with Nikon capture software (v4.2) and compiled into movie sequences using Adobe Photoshop (CS6) and Image J (v1.5d), allowing analysis of individual monocytes over large areas. The tested compounds, e.g. compounds of the general Formula (I), were maintained at the specified concentration in all wash buffers throughout the course of the experiment. The compounds were preincubated separately on both HUVECs and monocytes 15 minutes prior to flow co-culture. […]

C57BL/6J mice [1] = assay: Acute dextran sodium sulfate (DSS) induced colitis model; assay type: in vivo, mouse
Method: The colitis was inducted by adding 1.5% DSS to the drinking water of female C57BL/6J (7-8 weeks old) mice for 5 consecutive days (days 0-4) for all animals in the experimental groups. On day 5, DSS containing water was changed for regular drinking water and treatment was initiated. The working suspension of the compound of Formula 2 was administrated at 15 mg/kg by IV, IP or SC injections at q3w regimen (administered 3 times per week) and at 30 mg/kg by PO at qd regimen (once daily). Treatment continued for 10 days and thereafter mice were euthanized.
Determination of individual body weight of animals was made prior to each dosing and the administered volume was adjusted accordingly. Additional body weights throughout the entire experimental period were taken on a daily bases. The severity of colitis Disease Activity Index (DAI) score was monitored daily according to the criteria shown in Table 3 and calculated as a sum of the weight loss score, the diarrheal score and the hematochezia score. Disease activity index (DAI) based on the methods reported by Friedman et al. (PNAS, 2009) was used.
Mice from all groups were euthanized with isoflurane 24 hours post last dose administration. Colon was collected from each mouse, filled with 4% buffered formalin and colon length was measured. Large intestines were fixed, embedded in paraffin, sections and H&E stained using modified Swiss roll technique. Histological Score evaluation was performed based on: inflammatory cells infiltration and tissue damage, in four compartments of the large intestine graded from 0 to 3.
For tissue damage, discrete lymphoepithelial lesions were scored as 1, mucosal erosions as 2, and extensive mucosal damage and/or extension through deeper structures of the bowel wall as 3. The length of ulceration was measured in mm. The two equally weighted subscores (cell infiltration and tissue damage) at each compartment of the intestine were added as a colitis severity score. Ordinary one-way ANOVA statistical analysis was performed.

C57BL/6J mice [2] = assay: MOG35-55/CFA-induced experimental autoimmune encephalomyelitis (EAE); assay type: in vivo, mouse; settings: 15 mg/kg SC q3w
Method: Female 7-8 weeks old C57BL/6J mice were immunized with an emulsion of MOG35-55 in CFA according to standard protocol, followed by administration of pertussis toxin (PTX) in PBS. After the onset of EAE (9 days), mice were assigned by rolling enrollment to the groups one at a time as they show the first signs of EAE (paralysis score 0.5-1). Treatment group was administered with Formula 2 at 15 mg/kg dose at q3w regiment by SC injections, mock treated (vehicle) control group was administered with similar volume as a treated group. Body weight of animals was determined prior to the experiment and the administered volume of Formula 2 formulation was adjusted according to the body weight. During the experiment, mice body weight and paralysis clinical score was monitored daily.
Mice from all groups were euthanized with isoflurane 24 hours post last dose administration. Two-way ANOVA statistical analysis was performed.

## COC(=O)c1ccc(COc2c(C=C3C(=O)NC(=O)NC3=O)cccc2C(C)(C)C)cc1 [Formula 2, methyl 4-((2-(tert-butyl)-6-((2,4,6-trioxotetrahydropyrimidin-5(2H)-ylidene)methyl)phenoxy)methyl) benzoate]
B cells
  B cell adhesion and transmigration: dramatic blocking effect
C57BL/6J mice [1]; 30 mg/kg PO qd
  Disease Activity Index (DAI) score, PO treated mice: maximal effect
C57BL/6J mice [1]; all treated groups vs control groups
  colon length, amount by which control groups were shorter than treated groups: approximately 2 cm
C57BL/6J mice [1]; all treated groups: 15 mg/kg IV, IP or SC q3w, 30 mg/kg PO qd, 10 days
  Disease Activity Index (DAI) score: significantly decreased
C57BL/6J mice [1]; treated groups vs control groups
  Weight loss score: significantly lower
C57BL/6J mice [1]; treated groups vs control mice
  stool formation that readily becomes paste on the anus: not detected
C57BL/6J mice [1]; treated vs control mice
  Histological score of large intestine: significantly lower
C57BL/6J mice [2]; by day 20
  body weight: body weight recovery to that recorded on the onset of the disease
  paralysis score, decrease: from 2 to 1.5
C57BL/6J mice [2]; end of the experiment, average
  body weight difference between treated and non-treated group: approximately 4 g
C57BL/6J mice [2]; starting from day 10
  paralysis score: stable
